Data published in ChEMBL document CHEMBL5052842, “Pharmaceutical compounds and their use as inhibitors of ubiquitin specific protease 19 (usp19)” (2020).

molecular target: T1, Ubiquitin carboxyl-terminal hydrolase 19 (Homo sapiens, UniProt O94966); assay: Inhibition of C-terminal His6-tagged recombinant human USP19 using iso-peptide ubiquitin-Lys-TAMRA as substrate incubated for 30 mins and measured after 90 mins by fluorescent polarization assay
T1 sequence (O94966 whole entry): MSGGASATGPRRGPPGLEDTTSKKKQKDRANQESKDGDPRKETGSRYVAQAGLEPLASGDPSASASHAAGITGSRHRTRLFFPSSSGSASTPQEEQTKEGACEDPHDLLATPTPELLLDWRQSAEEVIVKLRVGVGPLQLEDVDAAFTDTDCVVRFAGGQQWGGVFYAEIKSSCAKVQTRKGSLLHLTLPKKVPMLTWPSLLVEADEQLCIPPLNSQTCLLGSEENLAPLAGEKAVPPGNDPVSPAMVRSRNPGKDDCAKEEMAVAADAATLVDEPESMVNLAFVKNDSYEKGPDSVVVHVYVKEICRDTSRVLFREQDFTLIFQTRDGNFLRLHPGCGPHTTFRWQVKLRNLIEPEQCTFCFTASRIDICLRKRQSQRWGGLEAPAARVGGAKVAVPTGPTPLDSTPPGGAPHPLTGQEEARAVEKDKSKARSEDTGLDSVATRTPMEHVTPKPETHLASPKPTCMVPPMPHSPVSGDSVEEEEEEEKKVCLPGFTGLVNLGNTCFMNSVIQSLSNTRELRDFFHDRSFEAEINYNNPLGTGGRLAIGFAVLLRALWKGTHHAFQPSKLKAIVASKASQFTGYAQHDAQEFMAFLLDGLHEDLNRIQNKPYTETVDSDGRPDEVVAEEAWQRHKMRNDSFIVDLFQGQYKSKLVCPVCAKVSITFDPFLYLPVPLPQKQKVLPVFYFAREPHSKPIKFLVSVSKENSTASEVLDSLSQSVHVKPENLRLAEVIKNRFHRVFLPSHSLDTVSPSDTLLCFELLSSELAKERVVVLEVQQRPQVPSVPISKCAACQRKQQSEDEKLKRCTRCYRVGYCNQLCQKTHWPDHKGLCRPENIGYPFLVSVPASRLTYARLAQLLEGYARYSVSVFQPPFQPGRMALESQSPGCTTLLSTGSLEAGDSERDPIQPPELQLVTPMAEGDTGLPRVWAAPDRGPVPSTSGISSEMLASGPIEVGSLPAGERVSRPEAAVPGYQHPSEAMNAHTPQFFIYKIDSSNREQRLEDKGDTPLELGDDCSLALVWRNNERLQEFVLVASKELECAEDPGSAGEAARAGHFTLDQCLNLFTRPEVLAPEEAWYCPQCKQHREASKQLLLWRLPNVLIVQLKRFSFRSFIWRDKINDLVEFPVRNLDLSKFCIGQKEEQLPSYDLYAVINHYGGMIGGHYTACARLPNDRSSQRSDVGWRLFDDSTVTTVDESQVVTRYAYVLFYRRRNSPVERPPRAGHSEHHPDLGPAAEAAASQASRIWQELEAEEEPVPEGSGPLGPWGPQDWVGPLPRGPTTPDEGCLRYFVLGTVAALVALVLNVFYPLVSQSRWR

Row | Compound | IC50 [nM]
1 | C[C@H](CC1CCCCC1)C(=O)N1CCC(O)(Cn2cnc3c(cnn3-c3ccccc3)c2=O)C2(CCCC2)C1 (stereo not given in full) | < 500
2 | C[C@H](CC1CCCCC1)C(=O)N1CCC(O)(CN2CCN(c3ccccc3)CC2=O)C2(CCCC2)C1 (stereo not given in full) | < 500
3 | C[C@H](CC1CCCCC1)C(=O)N1CCC(O)(Cn2cc(S(C)(=N)=O)c(Cl)cc2=O)C2(CCCC2)C1 (stereo not given in full) | < 500
4 | O=C1CN(c2ccccc2)CCN1CC1(O)CCN(C(=O)NCc2ccccc2)CC12CCCC2 (stereo not given) | < 500
5 | C[C@H](CC1CCCCC1)C(=O)N1CCC(O)(Cn2cc(S(C)(=N)=O)c(-c3ccccc3)cc2=O)C2(CCCC2)C1 (stereo not given in full) | < 500
6 | O=C(N1CCC(O)(Cn2cnc3cc(F)c(F)cc3c2=O)C2(CCCC2)C1)N1CCOC[C@H]1c1ccccc1 (stereo not given in full) | < 500
7 | O=C(N1CC[C@@](O)(Cn2cnc(-c3ccccc3)cc2=O)C2(CCCC2)C1)N1CCOC[C@H]1c1ccccc1 | < 500
8 | C[C@H](CC1CCCCC1)C(=O)N1CCC(O)(Cn2cc(S(C)(=O)=O)c(-c3ccccc3)cc2=O)C2(CCCC2)C1 (stereo not given in full) | < 500
9 | C[C@H](CC1CCCCC1)C(=O)N1CCC(O)(Cn2cc(S(C)(=O)=O)c(Cl)cc2=O)C2(CCCC2)C1 (stereo not given in full) | < 500
10 | Cn1ncc2c(=O)n(CC3(O)CCN(C(=O)N4CCNC[C@H]4c4ccccc4)CC34CCCC4)cnc21 (stereo not given in full) | < 500
11 | CSc1cn(CC2(O)CCN(C(=O)[C@H](C)CC3CCCCC3)CC23CCCC3)c(=O)cc1-c1ccccc1 (stereo not given in full) | < 500
12 | C[C@H](CC1CCCCC1)C(=O)N1CCC(O)(CN2CCN(C(=O)OC(C)(C)C)CC2=O)C2(CCCC2)C1 (stereo not given in full) | < 500
13 | C[C@H](CC1CCCCC1)C(=O)N1CCC(O)(Cn2cc(Cl)ncc2=O)C2(CCCC2)C1 (stereo not given in full) | < 500
14 | COC(=O)c1cn(CC2(O)CCN(C(=O)[C@H](C)CC3CCCCC3)CC23CCCC3)c(=O)cn1 (stereo not given in full) | < 500
15 | CN(C)C(=O)C1CN(C[C@]2(O)CCN(C(=O)[C@H](CO)CC3CCCCC3)CC2(C)C)C(=O)CC1c1ccccc1 (stereo not given in full) | < 500
16 | C[C@H](CC1CCCCC1)C(=O)N1CCC(O)(Cn2cnc3ccc(Cl)cc3c2=O)C2(CCCC2)C1 (stereo not given in full) | < 500
17 | C[C@H](CC(F)(F)F)C(=O)N1CCC(O)(CN2CCN(c3ccccn3)CC2=O)C2(CCCC2)C1 (stereo not given in full) | < 500
18 | O=C(N1CCC(O)(Cn2ccc3ccncc3c2=O)C2(CCCC2)C1)N1CCNC[C@H]1c1ccccc1 (stereo not given in full) | < 500
19 | COc1ccc2c(=O)n(CC3(O)CCN(C(=O)[C@H](C)CC4CCCCC4)CC34CCCC4)ccc2c1 (stereo not given in full) | ≤ 5000
20 | O=C(N1CC[C@@](O)(Cn2cnc(-c3ccccc3)cc2=O)C2(CCCC2)C1)N1CCNC[C@@H]1c1ccccc1 | < 500

Row | Compound | IC50 [nM]
21 | CSc1ncc2c(=O)n(C[C@]3(O)CCN(C(=O)N4CCNC[C@H]4c4ccccc4)CC34CCCC4)ccc2n1 | < 500
22 | CN(C)C(=O)c1cn(CC2(O)CCN(C(=O)N3CCC(C(F)(F)F)C3)CC23CCCC3)c(=O)cc1-c1ccccc1 (stereo not given) | < 500
23 | CSc1ncc2c(=O)n(CC3(O)CCN(C(=O)[C@H](C)CC4CCCCC4)CC34CCCC4)n(C)c2n1 (stereo not given in full) | < 500
24 | CSc1cn(CC2(O)CCN(C(=O)N3CCNC[C@H]3c3ccccc3)CC23CCCC3)c(=O)cc1-c1ccccc1 (stereo not given in full) | < 500
25 | CS(=O)(=O)c1cn(CC2(O)CCN(C(=O)N3CCNC[C@H]3c3ccccc3)CC23CCCC3)c(=O)cc1-c1ccccc1 (stereo not given in full) | < 500
26 | C[C@H](CC1CCCCC1)C(=O)N1CCC(O)(Cn2cc(Br)ncc2=O)C2(CCCC2)C1 (stereo not given in full) | < 500
27 | O=C(N1CC[C@@](O)(Cn2cnc(-c3ccccc3)cc2=O)C2(CCCC2)C1)N1CCC[C@H]1c1ccccc1 | < 500
28 | C[C@H](CC1CCCCC1)C(=O)N1CCC(O)(CN2CCOCC2=O)C2(CCCC2)C1 (stereo not given in full) | < 500
29 | Cc1cn(CC2(O)CCN(C(=O)N3CCNC[C@H]3c3ccccc3)CC23CCCC3)c(=O)cn1 (stereo not given in full) | < 500
30 | CSc1ncc2c(=O)n(CC3(O)CCN(C(=O)[C@H](C)CC(F)(F)F)CC34CCCC4)ccc2n1 (stereo not given in full) | < 500
31 | CS(=N)(=O)c1cn(CC2(O)CCN(C(=O)N3CCOC[C@H]3c3ccccc3)CC23CCCC3)c(=O)cc1-c1ccccc1 (stereo not given in full) | < 500
32 | CS(=N)(=O)c1cn(CC2(O)CCN(C(=O)N3CCNC[C@H]3c3ccccc3)CC23CCCC3)c(=O)cc1-c1ccccc1 (stereo not given in full) | < 500
33 | CSc1ncc2c(=O)n(CC3(O)CCN(C(=O)[C@H](C)CC4CCCCC4)CC34CCCC4)ccc2n1 (stereo not given in full) | < 500
34 | O=C(NCc1cccc(F)c1)N1CC[C@@](O)(Cn2cnc(-c3ccccc3)cc2=O)C2(CCCC2)C1 | < 500
35 | C[C@H](CC(F)(F)F)C(=O)N1CCC(O)(CN2CCN(c3ccccc3)CC2=O)C2(CCCC2)C1 (stereo not given in full) | < 500
36 | O=C(N1CCC(O)(Cn2cnc3c(cnn3-c3ccccc3)c2=O)C2(CCCC2)C1)N1CCNC[C@H]1c1ccccc1 (stereo not given in full) | < 500
37 | C[C@H](CC1CCCCC1)C(=O)N1CCC(O)(Cn2ccc3ccncc3c2=O)C2(CCCC2)C1 (stereo not given in full) | < 500
38 | O=C(N1CCC(O)(Cn2cnc3c(cnn3C3CC3)c2=O)C2(CCCC2)C1)N1CCNC[C@H]1c1ccccc1 (stereo not given in full) | < 500
39 | CN(C)C(=O)c1cn(CC2(O)CCN(C(=O)N(C)Cc3ccccc3)CC23CCCC3)c(=O)cc1-c1ccccc1 (stereo not given) | < 500

Results, then the compound that gave them:

Row | IC50 [nM] | Compound
40 | < 500 | O=C(N1CCC(O)(Cn2cnc3cc(F)c(F)cc3c2=O)C2(CCCC2)C1)N1CCNC[C@H]1c1ccccc1 (stereo not given in full)
41 | < 500 | O=C(N1CCC(O)(Cn2cnc3ccc(F)cc3c2=O)C2(CCCC2)C1)N1CCNC[C@H]1c1ccccc1 (stereo not given in full)
42 | < 500 | C[C@H](CC1CCCCC1)C(=O)N1CCC(O)(Cn2cc(C(=O)N(C)C)ncc2=O)C2(CCCC2)C1 (stereo not given in full)
43 | < 500 | C[C@H](CC1CCCCC1)C(=O)N1CCC(O)(Cn2cc([S+](C)[O-])c(-c3ccccc3)cc2=O)C2(CCCC2)C1 (stereo not given in full)
44 | < 500 | O=C(N1CCC(O)(Cn2cnc3c(cnn3Cc3ccccc3)c2=O)C2(CCCC2)C1)N1CCNC[C@H]1c1ccccc1 (stereo not given in full)
45 | < 500 | O=C(NCc1cccs1)N1CC[C@@](O)(Cn2cnc(-c3ccccc3)cc2=O)C2(CCCC2)C1
46 | < 500 | C[C@H](CC1CCCCC1)C(=O)N1CCC(O)(Cn2cc([S+](C)[O-])c(Cl)cc2=O)C2(CCCC2)C1 (stereo not given in full)
47 | < 500 | C[C@H](CC1CCCCC1)C(=O)N1CCC(O)(Cn2cc(N=S(C)(C)=O)c(-c3ccccc3)cc2=O)C2(CCCC2)C1 (stereo not given in full)
48 | < 500 | O=C(N1CC[C@@](O)(Cn2cnc(Cl)cc2=O)C2(CCCC2)C1)N1CCOC[C@H]1c1ccccc1
49 | < 500 | C[C@H](CC(F)(F)F)C(=O)N1CCC(O)(Cn2cc(N=S(C)(C)=O)c(-c3ccccc3)cc2=O)C2(CCCC2)C1 (stereo not given in full)
50 | < 500 | CN(C)C(=O)c1cn(CC2(O)CCN(C(=O)N(C)CC3CCCCC3)CC23CCCC3)c(=O)cc1-c1ccccc1 (stereo not given)
51 | < 500 | CCn1ncc2c(=O)n(CC3(O)CCN(C(=O)[C@H](C)CC4CCCCC4)CC34CCCC4)cnc21 (stereo not given in full)
52 | < 500 | O=C(NCc1ccccc1)N1CCC(O)(Cn2cnc(-c3ccccc3)cc2=O)C2(CCCC2)C1 (stereo not given)
53 | < 500 | CC(=O)N1CCN(CC2(O)CCN(C(=O)[C@H](C)CC3CCCCC3)CC23CCCC3)C(=O)C1 (stereo not given in full)
54 | < 500 | O=C(NCc1ccco1)N1CC[C@@](O)(Cn2cnc(-c3ccccc3)cc2=O)C2(CCCC2)C1
55 | < 500 | C[C@H](CC1CCCCC1)C(=O)N1CCC(O)(Cn2cnc3ccc(F)cc3c2=O)C2(CCCC2)C1 (stereo not given in full)
56 | < 500 | C[S+]([O-])c1cn(CC2(O)CCN(C(=O)N3CCNC[C@H]3c3ccccc3)CC23CCCC3)c(=O)cc1-c1ccccc1 (stereo not given in full)
57 | < 500 | O=C(N1CC[C@@](O)(Cn2ccc3ncncc3c2=O)C2(CCCC2)C1)N1CCNC[C@H]1c1ccccc1
58 | < 500 | CN(C)C(=O)c1cn(CC2(O)CCN(C(=O)NCc3ccccc3)CC23CCCC3)c(=O)cc1-c1ccccc1 (stereo not given)
59 | < 500 | C[C@H](CC1CCCCC1)C(=O)N1CCC(O)(Cn2cc(C(=O)N3CCNCC3)ncc2=O)C2(CCCC2)C1 (stereo not given in full)
60 | < 500 | C[C@H](CC1CCCCC1)C(=O)N1CCC(O)(Cn2cnc3cc(F)c(Cl)cc3c2=O)C2(CCCC2)C1 (stereo not given in full)
61 | < 500 | CSc1ncc2c(=O)n(CC3(O)CCN(C(=O)[C@H](C)CC4CCCCC4)CC34CCCC4)cnc2n1 (stereo not given in full)
62 | < 500 | O=C(NCc1ccccc1)N1CCC(O)(Cn2ccc(-c3ccccc3)cc2=O)C2(CCCC2)C1 (stereo not given)
63 | < 500 | O=C(N1CCC(O)(Cn2cnc3ccc(F)cc3c2=O)C2(CCCC2)C1)N1CCOC[C@H]1c1ccccc1 (stereo not given in full)
64 | < 500 | CSc1cn(CC2(O)CCN(C(=O)[C@H](C)CC3CCCCC3)CC23CCCC3)c(=O)cc1Cl (stereo not given in full)
65 | < 500 | C[C@H](CC1CCCCC1)C(=O)N1CCC(O)(Cn2cnc3cc(F)c(F)cc3c2=O)C2(CCCC2)C1 (stereo not given in full)
